Reference: ChEMBL document CHEMBL1129006, “Orally active inhibitors of stromelysin-1 (MMP-3)” (Bioorg Med Chem Lett, 1996)

Experiments:
Mus musculus [1] = assay: Compound was tested for inhibition of MMP-3 -mediated degradation of radiolabeled transferrin in mouse pleural cavity(PLCAV) at a dose 30 mg/kg administered intravenously.; assay type: functional; details: route intravenous
Mus musculus [2] = assay: Compound was tested for inhibition of MMP-3 -mediated degradation of radiolabeled transferrin in mouse pleural cavity(PLCAV) at a dose 100 mg/kg administered perorally.; assay type: functional; details: route oral
[3] = target: 72 kDa type IV collagenase (Homo sapiens, UniProt P08253); assay: Inhibition of matrix metalloprotease-2 (MMP-2)
Sequence of 72 kDa type IV collagenase (P08253 whole entry): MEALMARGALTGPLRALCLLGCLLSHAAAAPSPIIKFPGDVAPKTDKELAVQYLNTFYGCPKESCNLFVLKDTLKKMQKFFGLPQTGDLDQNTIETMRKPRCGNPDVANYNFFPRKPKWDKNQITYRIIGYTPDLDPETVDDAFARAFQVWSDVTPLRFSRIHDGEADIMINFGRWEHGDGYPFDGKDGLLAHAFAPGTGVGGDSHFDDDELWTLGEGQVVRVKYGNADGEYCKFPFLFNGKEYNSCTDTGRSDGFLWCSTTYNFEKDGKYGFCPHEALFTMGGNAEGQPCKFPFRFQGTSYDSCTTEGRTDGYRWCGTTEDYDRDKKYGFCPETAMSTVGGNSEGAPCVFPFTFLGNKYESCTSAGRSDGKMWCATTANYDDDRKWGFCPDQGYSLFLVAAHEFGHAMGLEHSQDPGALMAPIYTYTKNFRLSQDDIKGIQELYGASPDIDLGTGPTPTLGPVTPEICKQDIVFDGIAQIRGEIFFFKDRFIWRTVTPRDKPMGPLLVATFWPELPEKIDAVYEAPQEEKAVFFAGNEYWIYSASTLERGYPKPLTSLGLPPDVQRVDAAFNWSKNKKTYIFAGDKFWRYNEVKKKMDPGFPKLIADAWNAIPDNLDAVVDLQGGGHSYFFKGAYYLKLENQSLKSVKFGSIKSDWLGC

Stromelysin-1 = Stromelysin-1 (Homo sapiens, UniProt P08254)
Sequence of Stromelysin-1 (P08254 whole entry): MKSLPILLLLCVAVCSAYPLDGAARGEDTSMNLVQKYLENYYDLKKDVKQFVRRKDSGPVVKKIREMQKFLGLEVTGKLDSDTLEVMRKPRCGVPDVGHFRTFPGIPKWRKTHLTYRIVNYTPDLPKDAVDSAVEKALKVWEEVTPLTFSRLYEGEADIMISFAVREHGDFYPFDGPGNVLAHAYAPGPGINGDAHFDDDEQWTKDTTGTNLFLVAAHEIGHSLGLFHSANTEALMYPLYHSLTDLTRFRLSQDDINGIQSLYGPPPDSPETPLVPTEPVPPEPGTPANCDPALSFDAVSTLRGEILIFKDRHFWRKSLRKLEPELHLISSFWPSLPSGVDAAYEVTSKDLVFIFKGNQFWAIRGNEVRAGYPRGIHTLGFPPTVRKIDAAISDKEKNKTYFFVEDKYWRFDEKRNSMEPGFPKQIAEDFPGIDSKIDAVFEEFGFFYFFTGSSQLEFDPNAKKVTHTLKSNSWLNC
Description: Inhibition of matrix metalloprotease-3 (MMP-3).

Interstitial collagenase = target: T1, Interstitial collagenase (Homo sapiens, UniProt P03956); assay: Inhibition of matrix metalloprotease-1 (MMP-1)
T1 sequence (P03956 whole entry): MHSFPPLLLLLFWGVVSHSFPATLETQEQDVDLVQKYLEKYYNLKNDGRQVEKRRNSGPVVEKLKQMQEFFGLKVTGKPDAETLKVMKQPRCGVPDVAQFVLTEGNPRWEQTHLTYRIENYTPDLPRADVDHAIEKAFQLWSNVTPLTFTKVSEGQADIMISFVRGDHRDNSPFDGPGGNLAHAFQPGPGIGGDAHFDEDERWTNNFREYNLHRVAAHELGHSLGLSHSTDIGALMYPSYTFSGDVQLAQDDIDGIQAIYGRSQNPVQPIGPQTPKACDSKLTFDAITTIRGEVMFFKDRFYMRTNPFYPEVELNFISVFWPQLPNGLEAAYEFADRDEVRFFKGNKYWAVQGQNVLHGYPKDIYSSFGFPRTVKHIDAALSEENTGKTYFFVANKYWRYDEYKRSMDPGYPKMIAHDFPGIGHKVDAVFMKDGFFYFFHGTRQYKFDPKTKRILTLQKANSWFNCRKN

SMILES	inhibition in vivo at 30 mg/kg (Mus musculus [1]) [%]	inhibition in vivo at 100 mg/kg (Mus musculus [2]) [%]	Ki [3] [µM]	Ki (Stromelysin-1) [µM]	Ki (Interstitial collagenase) [µM]	ED50 (Mus musculus [2]) [mg/kg]
CC(C)C[C@H](NC(=O)[C@H](CCc1ccccc1)N[C@H](CCCCN1C(=O)c2ccccc2C1=O)C(=O)O)C(=O)Nc1ccccc1	91	1	–	–	–	–
CCCc1ccc(CC[C@H](N[C@H](CCCCN2C(=O)c3ccccc3C2=O)C(=O)O)C(=O)N[C@@H](CC(C)C)C(=O)Nc2ccccc2)cc1	89	–	0.0026	0.0019	> 10	–
CC(C)C[C@H](NC(=O)[C@H](CCc1ccccc1)NCC(=O)O)C(=O)Nc1ccccc1	–	–	0.47	3.6	4.62	–
CCCc1ccc(CC[C@H](C[C@H](CCCCN2Cc3ccccc3C2=O)C(=O)O)C(=O)N[C@@H](CC(C)C)C(=O)Nc2ccccc2)cc1	82	20	0.0057	0.00036	> 10	–
CCCc1ccc(CC[C@H](N[C@H](CCCCN2Cc3ccccc3C2=O)C(=O)O)C(=O)N[C@@H](CC(C)C)C(=O)Nc2ccccc2)cc1	81	4	0.11	0.0095	1.6	–
CC(C)C[C@H](NC(=O)[C@@H](CCC(=O)O)CCc1ccccc1)C(=O)Nc1ccccc1	–	–	> 1	5.8	> 10	–
CCCc1ccc(CC[C@H](CCC(=O)O)C(=O)N[C@@H](CC(C)C)C(=O)Nc2ccccc2)cc1	–	–	0.22	0.14	> 10	47
CCCc1ccc(CC[C@H](C[C@H](C)C(=O)O)C(=O)N[C@@H](CC(C)C)C(=O)Nc2ccccc2)cc1	–	–	0.31	0.068	> 10	32
CCCc1ccc(CC[C@H](N[C@H](C)C(=O)O)C(=O)N[C@@H](CC(C)C)C(=O)Nc2ccccc2)cc1	63	–	–	–	–	65
CC(C)C[C@H](NC(=O)[C@H](CCc1ccccc1)N[C@H](C)C(=O)O)C(=O)Nc1ccccc1 [L-696418]	50	55	–	–	0.77	–
